Experimental data published in patent US7727933B2, “2-ethyl-4,6-dimethyl-phenyl-substituted spirocyclic tetramic acid derivatives” (Bayer CropScience AG, priority 2003, dated 2010).

Legend:
Assay type in all cases: in vivo
[1] = tested on: Avena sativa; assay: Herbicidal post-emergence action (Example A); conditions: 320 g of a.i./ha, rated visually after about 3 weeks, 100% = plants have died
Experimental: (§1) Seeds of monocotyledonous and dicotyledonous weed and crop plants are placed into sandy loam in wood fibre pots, covered with soil and cultivated in a greenhouse under good growth conditions. 2-3 weeks after sowing, the test plants are treated at the one-leaf stage. The test compounds, formulated as wettable powders (WP), are, in various dosages with a water application rate of 600 l/ha (converted), with 0.2% of wetting agent added, sprayed onto the green parts of the plants. After the test plants were kept in the greenhouse under optimum growth conditions for about 3 weeks, the effect of the preparations is rated visually in comparison to untreated controls (herbicidal effect in percent (%): 100% effect=the plants have died, 0% effect=like control plants).

[2] = tested on: Setaria; assay: Herbicidal post-emergence action (Example A); conditions: 320 g of a.i./ha, rated visually after about 3 weeks, 100% = plants have died
Experimental: as §1

[3] = tested on: Lolium; assay: Herbicidal post-emergence action (Example A); conditions: 320 g of a.i./ha, rated visually after about 3 weeks, 100% = plants have died
Experimental: as §1

[4] = tested on: Summer barley; assay: Herbicidal post-emergence action with use of safeners (Example B), crop plant compatibility; conditions: without safener, rated 3-4 weeks after treatment
Experimental: Seeds of monocotyledonous and dicotyledonous weed and crop plants are placed into sandy loam in wood fibre pots or in plastic pots, covered with soil and cultivated in a greenhouse, during the vegetation period also outdoors outside of the greenhouse, under good growth conditions. 2-3 weeks after sowing, the test plants are treated at the one- to three-leaf stage. The test compounds, formulated as wettable powders (WP) or emulsifiable concentrates (EC) are, in various dosages with a water application rate of 300 l/ha (converted), with wetting agent (0.2 to 0.3%) added, sprayed onto the plants and the surface of the soil. 3-4 weeks after the treatment of the test plants, the effect of the preparations is rated visually in comparison to untreated controls (herbicidal effect in percent (%): 100% effect=the plants have died, 0% effect=like control plants). […]

CCc1cc(C)cc(C)c1C1=C(OC(=O)COC)C2(CCC(OC)CC2)NC1=O (centres unmarked) [Ex. I-b-1]
herbicidal effect in percent, Avena sativa [1]: 100% | herbicidal effect in percent, Setaria [2]: 90% | herbicidal effect in percent, Lolium [3]: 100% | Summer barley observed (%) ([4]; 12.5 g of a.i./ha): 65% | Summer barley observed (%) ([4]; 25 g of a.i./ha): 93%
